{"source": "patent US6548492B1", "about": "“Process for formulation of carbapenem antibiotic compositions” (Merck & Co., Inc., priority 1999, dated 2003)", "key": {"[1]": {"assay": "Stability and hygroscopicity of the bulk monosodium salt carbapenem on storage", "type": "physicochemical", "method": "and a process for the preparation thereof.\nDuring the manufacture of bulk compound products such as beta-lactam and carbapenem antibiotics, the pharmaceutical compound is prepared by chemical synthesis from raw materials in large quantities. As with many carbapenem compounds, the compound in accordance with formula I is prepared in large batches as a monosodium salt. The compound is a weakly crystalline solid, hygroscopic at ambient conditions, and is unstable at room and refrigerated temperatures. Therefore, the bulk compound must be stored at a temperature of about −20° C. to prevent degradation into dimer and open ring by-products."}, "[2]": {"settings": "cited from earlier work"}}, "data": [{"smiles": "CC(O)C1C(=O)N2C(C(=O)[O-])=C(SC3CNC(C(=O)Nc4cccc(C(=O)O)c4)C3)C(C)C12.[Na+]", "note": "(stereo not shown) [formula I]", "values": [{"measurement": "hygroscopicity", "setting": "[1]; ambient conditions, weakly crystalline solid", "value": "hygroscopic"}, {"measurement": "stability at room and refrigerated temperatures", "setting": "[1]; bulk monosodium salt", "value": "unstable"}, {"measurement": "stability at ambient conditions", "setting": "[2]; 20° C. and 1 atmosphere, monosodium salt", "value": "relatively unstable"}, {"measurement": "stability at temperatures above about −20° C.", "setting": "[2]; undergoes dimerization and hydrolysis to dimers and open ring by-products", "value": "remains unstable"}]}]}
